Measured values from patent US9445998B2, “Pharmaceutical dosage forms comprising a low-solubility drug and a polymer” (Bend Research, Inc., priority 2004, dated 2016).
≈ marks a conversion by molar mass, not a printed value. Where a name gives a salt, the structure may show the parent alone. Read-outs that look alike come from different tables or passages of the source. Blank lines part the entries; values can stand above or below the compound they belong to.

Assays:
[1] = for solubility in phosphate buffered saline: pH 6.5; for maximum dissolved drug concentration: pH 6.5 PBS solution
Excerpt: It is known that some drugs may crystallize into one of several different crystal forms. Such crystal forms are often referred to as “polymorphs.” As used herein, “a high-energy crystalline form” means that the drug is in a crystal form which provides solubility improvement as described below.
By “amorphous” is meant simply that the drug is in a non-crystalline state. As used herein, the term “a major portion” of means that at least 60 wt % of the drug in the composition is in the amorphous form, rather than the crystalline form. […] Amounts of crystalline drug may be measured by Powder X-Ray Diffraction (PXRD), Scanning Electron Microscope (SEM) analysis, differential scanning calorimetry (DSC), or any other standard quantitative measurement.
An appropriate PBS solution is an aqueous solution comprising 20 mM Na2HPO4, 47 mM KH2PO4, 87 mM NaCl, and 0.2 mM KCl, adjusted to pH 6.5 with NaOH. An appropriate MFD solution is the same PBS solution wherein there is also present 7.3 mM sodium taurocholic acid and 1.4 mM of 1-palmitoyl-2-oleyl-sn-glycero-3-phosphocholine. Water is a preferred dissolution media for some fast precipitating salts. […] In such cases it may be preferred to use an unbuffered test medium such as distilled water as the dissolution medium.

[2] = type: physicochemical; details: not told
Description: An Accurel® PP 1E microporous polypropylene membrane was obtained from Membrana GmbH (Wuppertal, Germany). The membrane was washed in isopropyl alcohol and rinsed in methanol in a sonicating bath for 1 minute at ambient temperature, and then allowed to air dry at ambient temperature. The feed side of the membrane was then plasma-treated to render it hydrophilic by placing a sample of the membrane in a plasma chamber. The atmosphere of the plasma chamber was saturated with water vapor at a pressure of 550 mtorr. A plasma was then generated using radio frequency (RF) power inductively coupled into the chamber via annular electrodes at a power setting of 50 watts for 45 seconds. The contact angle of a drop of water placed on the surface of the plasma-treated membrane was less than about 40°. The contact angle of a drop of water placed on the permeate side of the same membrane was greater than about 110°.
A permeate reservoir was formed by gluing a sample of the plasma-treated membrane to a glass tube having an inside diameter of about 1 inch (2.54 cm) using an epoxy-based glue (LOCTITE® E-30CL HYSOL® from Henkel Loctite Corp, Rocky Hill, Conn.). The feed-side of the membrane was oriented so that it was on the outside of the permeate reservoir, while the permeate-side of the membrane was oriented so that it was on the inside of the reservoir. The effective membrane area of the membrane on the permeate reservoir was about 4.9 cm^2. The permeate reservoir was placed into a glass feed reservoir. The feed reservoir was equipped with a magnetic stir bar and the reservoir was placed on a stir plate and the stir rate was set to 100 rpm during the test. The apparatus was placed into a chamber maintained at 37° C. for the duration of the test. Further details of the test apparatus and protocols are presented in co-pending U.S. Patent Application Ser. No. 60/557,897, entitled “Method and Device for Evaluation of Pharmaceutical Compositions,” filed Mar. 30, 2004, incorporated herein by reference.
To form the feed solution, a 1.429 mg (0.5 mgA) sample of CC-1 was weighed into a feed reservoir. (As used herein, “mgA” is milligrams of active drug, reported as the free base, non-salt form, non-hydrate drug molecule.) To this was added 5 mL of the MFD solution previously described, consisting of PBS solution containing 7.3 mM sodium taurocholic acid and 1.4 mM of 1-palmitoyl-2-oleyl-sn-glycero-3-phosphocholine (0.5% NaTC/POPC). […] The feed solution was mixed using a vortex mixer for 1 minute. Before the membrane contacted the feed solution, 5 mL of 60 wt % decanol in decane was placed into the permeate reservoir. Time zero in the test was when the membrane was placed in contact with the feed solution. A […] aliquot of the permeate solution was collected at the times indicated. Samples were then diluted in […] IPA and analyzed using HPLC.
The maximum flux of drug across the membrane (in units of μgA/cm^2-min) was determined by performing a least-squares fit to the data in Table 4 from 0 to 60 minutes to obtain the slope (CC-1: 0.26 μgA/mL-min; Control 1A: 0.13 μgA/mL-min; Control 1B: 0.07 μgA/mL-min), multiplying the slope by the permeate volume (5 mL), and dividing by the membrane area (4.9 cm^2).

[3] = Microcentrifuge dissolution test in MFD solution; type: physicochemical; set-up: AUC: concentration or dose not given beside the values; details: for Dissolved Ziprasidone Concentration / AUC: MFD solution pH 6.5, 37° C.; for Dissolved Ziprasidone Concentration: 200 μgA/mL if all dissolved
Description: A microcentrifuge dissolution test was performed to verify that ziprasidone hydrochloride monohydrate is a solubility-improved form of ziprasidone. For this test, a sufficient amount of ziprasidone hydrochloride monohydrate was added to a microcentrifuge test tube so that the concentration of ziprasidone would have been 200 μgA/mL, if all of the ziprasidone had dissolved. The tests were run in duplicate. The tubes were placed in a 37° C. temperature-controlled chamber, and 1.8 mL MFD solution at pH 6.5 and 290 mOsm/kg was added to each respective tube. The samples were quickly mixed using a vortex mixer for about 60 seconds. The samples were centrifuged at 13,000 G at 37° C. for 1 minute prior to collecting a sample. The resulting supernatant solution was then sampled and diluted 1:5 (by volume) with methanol. Samples were analyzed by high-performance liquid chromatography (HPLC) at a UV absorbance of 315 nm using a Zorbax RxC8 Reliance column and a mobile phase consisting of 55% (50 mM potassium dihydrogen phosphate, pH 6.5)/45% acetonitrile. Drug concentration was calculated by comparing UV absorbance of samples to the absorbance of drug standards. The contents of each tube were mixed on the vortex mixer and allowed to stand undisturbed at 37° C. until the next sample was taken. Samples were collected at 4, 10, 20, 40, 90, and 1200 minutes following administration to the MFD solution.
A similar test was performed with the crystalline ziprasidone free base as a control, and a sufficient amount of material was added so that the concentration of compound would have been 200 μgA/mL, if all of the ziprasidone had dissolved.
The concentrations of ziprasidone obtained in these tests were used to determine the maximum dissolved concentration of ziprasidone (“MDC90”) and the area under the concentration-versus-time curve (“AUC90”) during the initial ninety minutes.

Solubility in water = type: physicochemical; details: expressed as the free base, hydrochloride monohydrate
Excerpt: An example of a drug having a crystalline highly soluble salt form is ziprasidone. Ziprasidone hydrochloride monohydrate has a solubility of about 10 μgA/mL (expressed as the free base) in water, whereas the free base form has a solubility of less than about 0.2 μgA/mL under the same conditions. Thus, crystalline ziprasidone hydrochloride is a solubility-improved form relative to the crystalline free base form of ziprasidone.

Compound: O=C1Cc2cc(CCN3CCN(c4nsc5ccccc45)CC3)c(Cl)cc2N1 [Ziprasidone hydrochloride monohydrate, ziprasidone hydrochloride monohydrate]
AUC90 relative to that provided by the free base ([3]; MFD solution): 14 fold
MDC90 relative to that provided by the free base ([3]; MFD solution): 11 fold
Dissolved Ziprasidone Concentration ([3]; time 0 min): 0 μgA/mL
Dissolved Ziprasidone Concentration ([3]; time 4 min, hydrochloride monohydrate): 14 μgA/mL
Dissolved Ziprasidone Concentration ([3]; time 10 min, hydrochloride monohydrate): 15 μgA/mL
Dissolved Ziprasidone Concentration ([3]; time 20 min, hydrochloride monohydrate): 20 μgA/mL
Dissolved Ziprasidone Concentration ([3]; time 40 min, hydrochloride monohydrate): 22 μgA/mL
Dissolved Ziprasidone Concentration ([3]; time 90 min, hydrochloride monohydrate): 18 μgA/mL
Dissolved Ziprasidone Concentration ([3]; time 1200 min, hydrochloride monohydrate): 9 μgA/mL
AUC ([3]; up to time 0 min): 0 min-μgA/mL
AUC ([3]; up to time 4 min, hydrochloride monohydrate): 30 min-μgA/mL
AUC ([3]; up to time 10 min, hydrochloride monohydrate): 110 min-μgA/mL
AUC ([3]; up to time 20 min, hydrochloride monohydrate): 280 min-μgA/mL
AUC ([3]; up to time 40 min, hydrochloride monohydrate): 700 min-μgA/mL
AUC ([3]; up to time 90 min, hydrochloride monohydrate): 1,700 min-μgA/mL
AUC ([3]; up to time 1200 min, hydrochloride monohydrate): 16,400 min-μgA/mL
AUC90 ([3]; area under the concentration-versus-time curve during the initial ninety minutes, MFD solution, hydrochloride monohydrate): 1700 min·µgA/mL
MDC90 ([3]; maximum dissolved concentration during the initial ninety minutes, MFD solution, hydrochloride monohydrate): 22 µgA/mL
Maximum Flux of Ziprasidone [2]: 0.16 μgA/cm^2-min
Concentration (drug in the permeate solution) ([2]; 0 min, 100 μgA/mL, pH 6.5): 0.5 μgA/mL
Concentration (drug in the permeate solution) ([2]; 20 min, 100 μgA/mL, pH 6.5): 5.2 μgA/mL
Concentration (drug in the permeate solution) ([2]; 40 min, 100 μgA/mL, pH 6.5): 8.1 μgA/mL
Concentration (drug in the permeate solution) ([2]; 60 min, 100 μgA/mL, pH 6.5): 10.0 μgA/mL
Concentration (drug in the permeate solution) ([2]; 90 min, 100 μgA/mL, pH 6.5): 11.4 μgA/mL
Concentration (drug in the permeate solution) ([2]; 120 min, 100 μgA/mL, pH 6.5): 12.9 μgA/mL
Concentration (drug in the permeate solution) ([2]; 180 min, 100 μgA/mL, pH 6.5): 18.1 μgA/mL
Concentration (drug in the permeate solution) ([2]; 240 min, 100 μgA/mL, pH 6.5): 20.9 μgA/mL
Concentration (drug in the permeate solution) ([2]; 360 min, 100 μgA/mL, pH 6.5): 22.6 μgA/mL
solubility in water (Solubility in water): about 10 μgA/mL

Compound: O=C(N[C@@H](Cc1ccccc1)[C@@H](O)C(=O)N1C[C@@H](O)[C@@H](O)C1)c1cc2cc(Cl)ccc2[nH]1 [amorphous form, 5-chloro-1H-indole-2-carboxylic acid [(1S)-benzyl-3-((3R,4S)-dihydroxypyrrolidin-1-yl-)-(2R)-hydroxy-3-oxypropyl]amide]
maximum dissolved drug concentration [1]: about 600 μg/mL

Compound: ziprasidone tosylate [Control 3]
Maximum Flux of Ziprasidone [2]: 0.04 μg/cm^2-min

Now from value to compound:

solubility in phosphate buffered saline [1]: about 480 μg/mL
Compound: O=C(N[C@@H](Cc1ccccc1)[C@@H](O)C(=O)N1C[C@@H](O)[C@@H](O)C1)c1cc2cc(Cl)ccc2[nH]1 [A1, 5-chloro-1H-indole-2-carboxylic acid [(1S)-benzyl-3-((3R,4S)-dihydroxypyrrolidin-1-yl)-(2R)-hydroxy-3-oxpropyl]amide]

solubility in phosphate buffered saline [1]: 87 µg/mL (≈ 190 µM)
maximum dissolved drug concentration [1]: 87 µg/mL
Compound: O=C(N[C@@H](Cc1ccccc1)[C@@H](O)C(=O)N1C[C@@H](O)[C@@H](O)C1)c1cc2cc(Cl)ccc2[nH]1 [A2, 5-chloro-1H-indole-2-carboxylic acid [(1S)-benzyl-3-((3R,4S)-dihydroxypyrrolidin-1-yl)-(2R)-hydroxy-3-oxpropyl]amide]

Ziprasidone Concentration in Permeate ([2]; 0 min, 100 μgA/mL, pH 6.5): 0.5 μgA/mL
Maximum Flux of Ziprasidone ([2]; 100 μgA/mL, pH 6.5): 0.13 μgA/cm^2-min
Ziprasidone Concentration in Permeate ([2]; 20 min, 100 μgA/mL, pH 6.5): 3.8 μgA/mL
Ziprasidone Concentration in Permeate ([2]; 40 min, 100 μgA/mL, pH 6.5): 6.0 μgA/mL
Ziprasidone Concentration in Permeate ([2]; 60 min, 100 μgA/mL, pH 6.5): 8.4 μgA/mL
Ziprasidone Concentration in Permeate ([2]; 90 min, 100 μgA/mL, pH 6.5): 12.4 μgA/mL
Ziprasidone Concentration in Permeate ([2]; 120 min, 100 μgA/mL, pH 6.5): 15.3 μgA/mL
Ziprasidone Concentration in Permeate ([2]; 180 min, 100 μgA/mL, pH 6.5): 20.6 μgA/mL
Ziprasidone Concentration in Permeate ([2]; 240 min, 100 μgA/mL, pH 6.5): 25.2 μgA/mL
Ziprasidone Concentration in Permeate ([2]; 360 min, 100 μgA/mL, pH 6.5): 30.6 μgA/mL
Compound: O=C1Cc2cc(CCN3CCN(c4nsc5ccccc45)CC3)c(Cl)cc2N1 [Control 1A, ziprasidone hydrochloride monohydrate]
